From publication PMC4673936, “Design, Synthesis and Biological Evaluation of New 1, 4-Dihydropyridine (DHP) Derivatives as Selective Cyclooxygenase-2 Inhibitors” (Iranian Journal of Pharmaceutical Research : IJPR, 2015)
One block for each compound: values may come before it.

Assays:
COX-2 = biological target: T1, COX-2 (Ovis aries, UniProt P79208); assay: biochemical; assay type: biochemical; conditions: for COX-2 S.I. (in-vitro COX-2 selectivity index): COX-1 IC50/COX-2 IC50; for IC50: ovine COX-1/COX-2 assay kit, mean of two determinations, deviation < 10% of mean; for COX-2 inhibitory activity relative to compound 5e (in words): larger groups (propyl, phenyl) at C-2 position of compound 5e
T1 construct: purchased Cayman chemical, MI, USA
T1 sequence (P79208 17-603): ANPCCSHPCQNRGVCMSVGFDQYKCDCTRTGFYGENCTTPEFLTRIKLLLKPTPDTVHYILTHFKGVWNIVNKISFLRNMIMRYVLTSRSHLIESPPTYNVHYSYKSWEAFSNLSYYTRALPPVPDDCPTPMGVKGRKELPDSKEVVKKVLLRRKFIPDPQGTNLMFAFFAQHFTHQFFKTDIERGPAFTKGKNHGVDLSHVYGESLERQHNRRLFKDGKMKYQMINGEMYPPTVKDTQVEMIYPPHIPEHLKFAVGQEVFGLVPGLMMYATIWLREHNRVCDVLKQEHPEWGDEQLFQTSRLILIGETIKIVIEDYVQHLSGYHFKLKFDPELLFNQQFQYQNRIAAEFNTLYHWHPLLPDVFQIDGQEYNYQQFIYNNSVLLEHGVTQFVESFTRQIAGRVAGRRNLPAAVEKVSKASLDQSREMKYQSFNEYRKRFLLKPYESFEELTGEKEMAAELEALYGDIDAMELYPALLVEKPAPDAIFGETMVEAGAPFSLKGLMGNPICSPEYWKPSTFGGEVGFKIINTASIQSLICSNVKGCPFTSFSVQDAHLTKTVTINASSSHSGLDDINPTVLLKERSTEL
Method: (§1) A group of 1,4-dihydropyridine derivativespossessing a MeSO2 at the para-position of the C-4 phenyl ring, alkyl groups(R1) at the C-2 position and alkyloxycarbonyl groups(COOR2) at the C-3 position were prepared and evaluated for their ability to inhibit COX-1 and COX-2 using chemiluminescent kit (Cayman chemical, MI, USA) according to our previously reported method ([14]).

COX-1 = biological target: T2, COX-1 (Ovis aries, UniProt P05979); assay: biochemical; conditions: ovine COX-1/COX-2 assay kit; mean of two determinations, deviation < 10% of mean
T2 construct: purchased Cayman chemical, MI, USA
T2 sequence (P05979 25-600): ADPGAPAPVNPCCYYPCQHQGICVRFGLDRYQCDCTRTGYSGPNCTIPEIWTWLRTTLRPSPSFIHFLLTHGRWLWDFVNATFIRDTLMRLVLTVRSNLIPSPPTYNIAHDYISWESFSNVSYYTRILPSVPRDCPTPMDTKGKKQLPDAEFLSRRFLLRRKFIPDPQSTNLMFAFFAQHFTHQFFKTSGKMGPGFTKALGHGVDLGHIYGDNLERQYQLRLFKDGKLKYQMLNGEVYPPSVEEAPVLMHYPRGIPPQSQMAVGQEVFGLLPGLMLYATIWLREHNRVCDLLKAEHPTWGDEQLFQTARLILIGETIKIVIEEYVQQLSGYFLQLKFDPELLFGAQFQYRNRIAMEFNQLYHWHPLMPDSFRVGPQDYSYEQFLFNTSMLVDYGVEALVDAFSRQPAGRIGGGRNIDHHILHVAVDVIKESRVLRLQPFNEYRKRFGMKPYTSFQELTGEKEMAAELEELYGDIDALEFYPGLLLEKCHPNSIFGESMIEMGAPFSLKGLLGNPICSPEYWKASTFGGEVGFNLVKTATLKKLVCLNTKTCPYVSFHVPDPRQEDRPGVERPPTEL
Method: as §1

Structure (SMILES): CCC1=C(C(=O)OC)C(c2ccc(S(C)(=O)=O)cc2)C2=C(CC(C)(C)CC2=O)N1 (stereo not drawn) [Compound 5c, Methyl-2-ethyl-1,4,5,6,7,8-hexahydro-7,7-dimethyl-4-(4-(methylsulfonyl)phenyl)-5-oxoquinoline-3-carboxylate]
COX-2 S.I. (in-vitro COX-2 selectivity index) (COX-2): 52.1 | IC50 (COX-2): 590 nM | IC50 (COX-1): 30.7 µM | melting point: 186.5 to 188 °C

Structure (SMILES): COC(=O)C1=C(C(C)C)NC2=C(C(=O)CC(C)(C)C2)C1c1ccc(S(C)(=O)=O)cc1 (stereo not drawn) [Compound 5d]
IC50 (COX-2): 620 nM | IC50 (COX-1): 27.6 µM

Structure (SMILES): CCCC1=C(C(=O)OCC)C(c2ccc(S(C)(=O)=O)cc2)C2=C(CC(C)(C)CC2=O)N1 (stereo not drawn) [Compound 5f, Ethyl-1,4,5,6,7,8-hexahydro-7,7-dimethyl-4-(4-(methylsulfonyl)phenyl)-5-oxo-2-propylquinoline-3-carboxylate]
COX-2 S.I. (in-vitro COX-2 selectivity index) (COX-2): 18.2 | COX-2 inhibitory activity relative to compound 5e (in words) (COX-2): significant loss of activities | IC50 (COX-2): 1380 nM | IC50 (COX-1): 25.2 µM | melting point: 163 to 164 °C

Structure (SMILES): CCOC(=O)C1=C(c2ccccc2)NC2=C(C(=O)CC(C)(C)C2)C1c1ccc(S(C)(=O)=O)cc1 (stereo not drawn) [Compound 5g, Ethyl-1,4,5,6,7,8-hexahydro-7,7-dimethyl-4-(4-(methylsulfonyl)phenyl)-5-oxo-2-phenylquinoline-3-carboxylate]
COX-2 inhibitory activity relative to compound 5e (in words) (COX-2): significant loss of activities | IC50 (COX-2): > 100000 nM | IC50 (COX-1): 46.1 µM | melting point: 187.9 to 189 °C

Structure (SMILES): CC1=C(C(=O)OC(C)(C)C)C(c2ccc(S(C)(=O)=O)cc2)C2=C(CC(C)(C)CC2=O)N1 (stereo not drawn) [Compound 5h, t-Butyl-1,4,5,6,7,8-hexahydro-2,7,7-trimethyl-4-(4-methanesulfonyl-phenyl)-5-oxo-quinoline-3-carboxylate]
COX-2 S.I. (in-vitro COX-2 selectivity index) (COX-2): 63.7 | IC50 (COX-2): 400 nM | IC50 (COX-1): 25.5 µM | melting point: 163 to 164 °C

Structure (SMILES): CC1=C(C(=O)OCc2ccccc2)C(c2ccc(S(C)(=O)=O)cc2)C2=C(CC(C)(C)CC2=O)N1 (stereo not drawn) [Compound 5i]
IC50 (COX-2): > 100000 nM | IC50 (COX-1): 22.9 µM | melting point: 136.9 to 138.9 °C

Further lines, results first:

COX-2 S.I. (in-vitro COX-2 selectivity index) (COX-2): 62.9 | IC50 (COX-2): 480 nM | IC50 (COX-1): 30.2 µM | melting point: 244 to 245 °C
Structure (SMILES): COC(=O)C1=C(C)NC2=C(C(=O)CC(C)(C)C2)C1c1ccc(S(C)(=O)=O)cc1 (stereo not drawn) [Compound 5a, Methyl-1,4,5,6,7,8-hexahydro-2,7,7-trimethyl-4-(4-(methylsulfonyl)phenyl)-5-oxoquinoline-3-carboxylate]

COX-2 S.I. (in-vitro COX-2 selectivity index) (COX-2): 70.4 | IC50 (COX-2): 440 nM | IC50 (COX-1): 31 µM
Structure (SMILES): COC(=O)C1=C(N)NC2=C(C(=O)CC(C)(C)C2)C1c1ccc(S(C)(=O)=O)cc1 (stereo not drawn) [Compound 5b, Methyl-2-amino-1,4,5,6,7,8-hexahydro-7,7-dimethyl-4-(4-(methylsulfonyl)phenyl)-5-oxo quinolone-3-carboxylate]

COX-2 S.I. (in-vitro COX-2 selectivity index) (COX-2): 92.0 | IC50 (COX-2): 300 nM | IC50 (COX-1): 27.6 µM | melting point: 180.7 to 182.3 °C
Structure (SMILES): CCOC(=O)C1=C(C)NC2=C(C(=O)CC(C)(C)C2)C1c1ccc(S(C)(=O)=O)cc1 (stereo not drawn) [Compound 5e, Ethyl-1,4,5,6,7,8-hexahydro-2,7,7-trimethyl-4-(4-(methylsulfonyl)phenyl)-5-oxoquinoline-3-carboxylate]
